In data set [1] the target is T1, Glucagon-like peptide 1 receptor (Homo sapiens, UniProt P43220). As to the kind of experiment: Activation of GLP-1 receptor (unknown origin) expressed in CHO-K1 cells assessed as increase in cAMP accumulation by time-resolved fluorescence resonance energy transfer immunoassay. In kind it is functional, cell-based. (Changes in cAMP serve as a functional read-out for many G protein-coupled receptors.)

Data set [2] deals with T1, Glucagon-like peptide 1 receptor. In words: Binding affinity to GLP-1 receptor (unknown origin) assessed as binding rate constant by surface plasmon resonance analysis. As to conditions: filed as activator. On the technique in general: Surface plasmon resonance follows binding to a sensor surface in real time, without labels.
The test system of data set [3] is Mus musculus. In words: Antidiabetic activity in mouse assessed as decrease in blood glucose level at 30 nmol/kg, sc measured after 24 hrs. In kind it is functional, organism-based.
Data set [4] deals with Albumin (Homo sapiens, UniProt P02768). In words: Binding affinity to albumin (unknown origin) by HPLC analysis.
Sequence of Albumin (P02768 whole entry): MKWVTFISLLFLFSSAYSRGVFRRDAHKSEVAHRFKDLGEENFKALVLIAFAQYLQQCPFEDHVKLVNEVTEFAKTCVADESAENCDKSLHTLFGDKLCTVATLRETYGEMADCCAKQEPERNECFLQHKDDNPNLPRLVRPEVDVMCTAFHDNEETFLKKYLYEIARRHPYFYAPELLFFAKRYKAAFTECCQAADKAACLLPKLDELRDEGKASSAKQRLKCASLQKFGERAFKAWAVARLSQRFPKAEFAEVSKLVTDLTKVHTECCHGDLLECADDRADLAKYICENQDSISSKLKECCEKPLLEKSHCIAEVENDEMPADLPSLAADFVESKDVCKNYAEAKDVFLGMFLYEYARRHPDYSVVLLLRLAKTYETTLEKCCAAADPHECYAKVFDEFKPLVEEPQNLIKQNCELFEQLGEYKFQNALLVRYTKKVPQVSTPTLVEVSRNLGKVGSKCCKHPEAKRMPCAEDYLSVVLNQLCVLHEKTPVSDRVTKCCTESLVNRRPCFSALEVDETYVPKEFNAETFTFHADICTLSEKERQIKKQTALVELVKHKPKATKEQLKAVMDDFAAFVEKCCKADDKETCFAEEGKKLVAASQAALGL
Data set [5] relates to Mus musculus. In words: Antidiabetic activity in mouse assessed as decrease in body weight at 30 nmol/kg, sc measured after 24 hrs. The format is functional, organism-based.
Data set [6] addresses T1, Glucagon-like peptide 1 receptor. In words: Binding affinity to GLP-1 receptor (unknown origin) assessed as equlibrium constant by surface plasmon resonance analysis.
In data set [7] the test system is Mus musculus. As to the kind of experiment: Antidiabetic activity in mouse assessed as decrease in AUC (0 to 24hrs) glucose level at 30 nmol/kg, sc measured after 24 hrs. In kind it is functional, organism-based.
Data set [8] addresses T2, Glucagon-like peptide 1 receptor (Rattus norvegicus) (UniProt P32301).
T2 sequence (whole entry): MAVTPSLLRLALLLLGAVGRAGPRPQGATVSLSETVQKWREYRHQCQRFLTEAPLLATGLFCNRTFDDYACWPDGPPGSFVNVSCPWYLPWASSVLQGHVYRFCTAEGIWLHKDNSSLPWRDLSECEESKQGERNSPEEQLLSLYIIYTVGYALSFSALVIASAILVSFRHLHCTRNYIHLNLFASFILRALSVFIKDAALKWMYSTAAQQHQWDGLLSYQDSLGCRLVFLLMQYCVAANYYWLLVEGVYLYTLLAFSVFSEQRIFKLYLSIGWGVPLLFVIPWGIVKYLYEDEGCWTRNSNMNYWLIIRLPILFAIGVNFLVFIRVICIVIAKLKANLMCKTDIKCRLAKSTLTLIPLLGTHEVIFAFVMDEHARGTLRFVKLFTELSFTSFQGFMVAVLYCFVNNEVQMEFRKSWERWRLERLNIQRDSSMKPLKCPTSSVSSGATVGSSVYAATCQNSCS
In words: Activation of GLP-1 receptor in rat INS-1 cells assessed as cAMP accumulation at 10 nmol/L time-resolved fluorescence resonance energy transfer immunoassay. The format is functional, cell-based. As to conditions: INS1, filed as activator.

Data set [9] deals with T1, Glucagon-like peptide 1 receptor. In words: Binding affinity to GLP-1 receptor (unknown origin) assessed as dissociation rate constant by surface plasmon resonance analysis. To be noted: filed as activator.

The values that follow come from ChEMBL document CHEMBL5120806, “Synthesis and biological evaluation of glucagon-like peptide-1 analogs with the C-terminal helix 3 of albumin-binding domain 3” (Bioorg Med Chem, 2022).

A word on the EC50: it is the concentration needed to bring the measured effect to its halfway point. As usually defined, the Kd is the constant that tells how readily two partners part at equilibrium.

Activity calls are given as the source filed them. No cut-off for these calls is given here. Where a SMILES comes first, the peptide text is derived from it. [ ]: non-standard residue; d: D form. Aun = NCCCCCCCCCCC(=O)O; AEEA = NCCOCCOCC(=O)O; Aib = CC(C)(N)C(=O)O; Aoc = NCCCCCCCC(=O)O Bounds are passed on as bounds.

T1 sequence (P43220 whole entry): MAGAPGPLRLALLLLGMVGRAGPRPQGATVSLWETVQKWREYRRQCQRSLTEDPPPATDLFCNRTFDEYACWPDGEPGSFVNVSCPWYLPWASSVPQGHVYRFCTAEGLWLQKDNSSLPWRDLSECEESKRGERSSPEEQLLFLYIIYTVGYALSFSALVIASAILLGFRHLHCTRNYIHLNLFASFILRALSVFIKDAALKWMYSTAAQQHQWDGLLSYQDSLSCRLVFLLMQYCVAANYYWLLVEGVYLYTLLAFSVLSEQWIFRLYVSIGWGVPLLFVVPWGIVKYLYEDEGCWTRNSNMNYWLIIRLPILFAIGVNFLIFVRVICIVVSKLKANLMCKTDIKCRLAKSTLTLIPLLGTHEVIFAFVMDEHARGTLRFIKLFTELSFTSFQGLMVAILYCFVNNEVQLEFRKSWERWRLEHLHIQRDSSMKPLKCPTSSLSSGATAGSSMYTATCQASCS

Take `CC[C@H](C)[C@H](NC(=O)[C@H](Cc1ccccc1)NC(=O)[C@H](CCC(=O)O)NC(=O)[C@H](CCCCN)NC(=O)[C@H](C)NC(=O)[C@H](C)NC(=O)[C@H](CCC(N)=O)NC(=O)CNC(=O)[C@H](CCC(=O)O)NC(=O)[C@H](CC(C)C)NC(=O)[C@H](Cc1ccc(O)cc1)NC(=O)[C@H](CO)NC(=O)[C@H](CO)NC(=O)[C@@H](NC(=O)[C@H](CC(=O)O)NC(=O)[C@H](CO)NC(=O)[C@@H](NC(=O)[C@H](Cc1ccccc1)NC(=O)[C@@H](NC(=O)CNC(=O)[C@H](CCC(=O)O)NC(=O)C(C)(C)N)[C@@H](C)O)[C@@H](C)O)C(C)C)C(=O)N[C@@H](C)C(=O)N[C@@H](Cc1c[nH]c2ccccc12)C(=O)N[C@@H](CC(C)C)C(=O)N[C@H](C(=O)N[C@@H](CCCCN)C(=O)NCC(=O)NCC(=O)N[C@H](C(=O)N[C@@H](CCCCN)C(=O)N[C@@H](C)C(=O)N[C@@H](CC(C)C)C(=O)N[C@H](C(=O)N[C@@H](CC(=O)O)C(=O)N[C@@H](CCC(=O)O)C(=O)N[C@H](C(=O)N[C@@H](CC(C)C)C(=O)N[C@@H](C)C(=O)N[C@@H](C)C(N)=O)[C@@H](C)CC)[C@@H](C)CC)C(C)C)C(C)C` (H-[Aib]EGTFTSDVSSYLEGQAAKEFIAWLVKGGVKALIDEILAA-NH2): the EC50 in [1] amounted to 0.0651 nM. Besides, in [2], the Ka was 2.99 10^3(1/Ms). Besides, the result in data set [3], in data set [5], in [7] and in data set [8] was Active. Moreover, in data set [4], the Activity stood at 86.2%. In addition, the Kd in data set [6] is 3750 nM. Moreover, the Kdiss in data set [9] was 1.12 10^-2/s.

For the compound “H-[Aib]EGTFTSDVSSYLEGQAAKEFIAWLVKG[AEEA]GVKALIDEILAA-NH2”, in data set [1], the EC50 came out at 0.132 nM. The Ka in [2] was 1.95 10^4/Ms. For the same compound, the result in [3] was Active. The Activity in [4] worked out at 75.4%. The Kd in data set [6] amounted to 994 nM. The Kdiss in data set [9] is 1.94 10^-2/s.

In the case of “H-[Aib]EGTFTSDVSSYLEGQAAKEFIAWLVKG[AEEA][AEEA]GVKALIDEILAA-NH2”, the EC50 in data set [1] came to 0.17 nM. In addition, the Ka in [2] is 3.57 10^4/Ms. Besides, the outcome in [3] and in data set [7] was Active. Also, the Activity in data set [4] turned out to be 65.6%. In addition, the equilibrium dissociation constant (Kd) in [6] was found to be 912 nM. For the same compound, in data set [9], the Kdiss is 3.25 10^-2/s.

Consider “H-[Aib]EGTFTSDVSSYLEGQAAKEFIAWLVKG[Aoc]GVKALIDEILAA-NH2”, for which, in data set [1], the EC50 turned out to be 0.204 nM. The Ka in data set [2] is 2.01 10^4/Ms. Also, the result in data set [3] and in data set [7] was Active. For the same compound, the Activity in [4] is listed as 77.4%. The Kd in data set [6] was determined as 700 nM. Also, the Kdiss in [9] is 1.41 10^-2/s.

With “H-[Aib]EGTFTSDVSSYLEGQAAKEFIAWLVKG[Aoc][AEEA]GVKALIDEILAA-NH2”, in data set [1], the concentration giving a half-maximal response (EC50) was 0.135 nM. The Ka in data set [2] is 3.11 10^4/Ms. Further, the outcome in data set [3] and in data set [7] was Active. The compound also registered an Activity in data set [4] of 66.5%. Moreover, in data set [6], the Kd came to 532 nM. Also, in [9], the Kdiss is 1.65 10^-2/s.

As for “H-[Aib]EGTFTSDVSSYLEGQAAKEFIAWLVKG[Aun]GVKALIDEILAA-NH2”, the EC50 in data set [1] worked out at 0.209 nM. The Ka in [2] was 7.53 10^3(1/Ms). Besides, the outcome in data set [3], in [5], in [7] and in data set [8] was Active. Moreover, the Activity in [4] worked out at 89.2%. Besides, in [6], the dissociation constant (Kd) was 1460 nM. The Kdiss in data set [9] was 1.1 10^-2/s.

Turning to “H-[Aib]EGTFTSDVSSYLEGQAAKEFIAWLVKG[Aun][AEEA]GVKALIDEILAA-NH2”, in data set [1], the EC50 stood at 0.158 nM. Also, in data set [2], the Ka is 1.32 10^4/Ms. The outcome in [3], in data set [5] and in [7] was Active. The compound further registered an Activity in [4] of 76.4%. The Kd in data set [6] is 1490 nM. In addition, in [9], the Kdiss is 1.97 10^-2/s.

As for SEMAGLUTIDE [listing 1 of 2 here], in data set [4], the Activity is over 99%.

As to SEMAGLUTIDE [listing 2 of 2 here], the Ka in data set [2] is 7.26 10^4/Ms. Further, the result in [3] and in [7] was Active. In [9], the Kdiss is 3.2 10^-2/s.
